We go through 21 compounds from patent US5578608A, “Symmetrical diaryl and diheteroanyl cis epoxy alkanes antiviral compounds” (Eli Lilly and Company, priority 1995, dated 1996).

Molecules are shown by their SMILES.

One experiment has as its target T1, HIV-1 protease (Human immunodeficiency virus type 1 group M subtype B, UniProt P04585).
T1 construct: made in house; host or cells: E. coli K12 L507/pHP10D (NRRL B-18560)
The experiment in a line: biochemical. To be noted: * average IC50; 16 h incubation at room temperature, MES-ALB buffer pH 5.5; normalized to a positive control; read-out: Fluorescence Assay average IC50 (marked *) (converted). As for the experimental part: A culture of E. coli K12 L507/pHP10D was grown to mid-log phase at 32° C. in LB media containing 12.5 μg/ml tetracycline. The cultivation temperature was quickly elevated to 40° C. to induce gene expression, and the cells were allowed to grow for 2.5 hours at this temperature before the culture was quickly chilled on ice. The cells were centrifuged and the cell pellet was resuspended in 20 mL 50 mmol MES buffer (pH 6.0) containing 1 mmol EDTA, 1 mmol DTT, 1 mmol PMSF and 10% glycerol ("Buffer A"). Cells were lysed by sonication using a Fischer Model 300 Dismembrator and a microtip probe. Following centrifugation at 27,000 x g, the supernatant was diluted to a total volume of 60 mL with Buffer A and loaded onto a 2.0×19 cm QAE-Sepharose column (1 mL/min, 4° C.), that had been equilibrated in Buffer A. The column was washed isocratically for 180 min and then eluted with a gradient eluent of 0-1.0M NaCl in Buffer A over 120 min. Enzymatic activity was measured by HPLC using the synthetic peptide SQNYPIV as described in Margolin et al., Biochem. Biophys. Res. Commun., […], 554-560 (1990); the production of the p1 peptide (SQNY) was measured.
N^a -Biotin-[…]N^e -FITC)-OH SEQ ID NO: 1
The following buffers and solutions are used in the Fluorescence HIV-1 Protease Inhibitor Assay:
To each well of a round bottom, 96-well plate is added 20 μL of the Enzyme Solution followed by 10 μL of the compound to be evaluated in a 20% aqueous dimethylsulfoxide solution. Purified HIV-1 protease was obtained as described above. The resulting solution is incubated for one hour at room temperature and then 20 μL of a solution containing the substrate, N^a -Biotin-[…]N^e-FITC)-OH, in MES-ALB buffer ([…]) is added to each well. The solutions are then incubated for 16 hours at room temperature and then each well is diluted with 150 μL of MES-ALB buffer.
To each well of a second round bottom, 96-well Pandex plate is added 25 uL of the Avidin Coated Beads Solution. Then, to each well is added 25 μL of the diluted incubation solutions, prepared above. The solutions are mixed thoroughly and the plates are loaded into a Pandex® machine, washed, evacuated and read. Sample detection was performed by excitation at 485 nm, reading the resulting epifluorescence at 535 nm.
With `CSC[C@@H](NC(=O)OCc1ccccc1)C(=O)N[C@@H](Cc1ccccc1)[C@@H]1O[C@@H]1[C@H](Cc1ccccc1)NC(=O)[C@@H](CSC)NC(=O)OCc1ccccc1` [Example 11, 1,6-Diphenyl-2(S),5(S)-di[N-[2(S)-N(benzyloxycarbonyl)amino-3-methylthiopropanoyl]amino]-3,4-cis-epoxyhexane], the IC50 is 0.248 µM.

Staying with this experiment, now noted: at 1000 ng/ml; read-out: Fluorescence Assay, given as ICxx (1000): xx is the percent inhibition.
Take `CC(C)[C@H](NC(=O)OCc1ccccn1)C(=O)N[C@@H](CCc1ccccc1)[C@@H]1O[C@@H]1[C@H](CCc1ccccc1)NC(=O)[C@@H](NC(=O)OCc1ccccn1)C(C)C` [Example 36]: the inhibition at 1 µg/mL worked out at 26%.

Regarding `CC[C@H](NC(=O)N(C)Cc1ccccn1)C(=O)N[C@@H](Cc1ccc2ccccc2c1)[C@@H]1O[C@@H]1[C@H](Cc1ccc2ccccc2c1)NC(=O)[C@H](CC)NC(=O)N(C)Cc1ccccn1` [Example 34, 1,6-Dinaphth-2-yl-2(S),5(S)-di[N-[2(S)-N-[[N(methyl)-N (pyrid-2-ylmethyl)amino]carbonyl]aminobutanoyl]amino]-3,4-cis-epoxyhexane], the inhibition at 1 µg/mL came out at 34%.

In the case of `CC(C)[C@H](NC(=O)N(C)CCc1ccccn1)C(=O)N[C@@H](Cc1ccccc1)[C@@H]1O[C@@H]1[C@H](Cc1ccccc1)NC(=O)[C@@H](NC(=O)N(C)CCc1ccccn1)C(C)C` [Example 16, 1,6-Diphenyl-2(S),5(S)-di[N-[2(S)-N-[[N(methyl)-N(pyrid-2-ylethyl)amino]carbonyl]amino-3-methylbutanoyl]amino]-3,4-cis-epoxyhexane], the inhibition at 1 µg/mL is 32%.

As for `CCCC[C@H](NC(=O)OCc1ccccn1)C(=O)N[C@@H](Cc1ccccc1)[C@@H]1O[C@@H]1[C@H](Cc1ccccc1)NC(=O)[C@H](CCCC)NC(=O)OCc1ccccn1` [Example 25, 1,6-Diphenyl-2(S),5(S)-di[N-[2(S)-N(pyrid-2-ylmethoxycarbonyl)amino]hexanoyl]amino-3,4-cis-epoxyhexane], the inhibition at 1 µg/mL came out at 40%.

The experiment is the same for the next values; noted with them: read-out: Fluorescence Assay IC50 (converted).
With `O=C(N[C@@H](Cc1c[nH]cn1)C(=O)N[C@@H](Cc1ccccc1)[C@@H]1O[C@@H]1[C@H](Cc1ccccc1)NC(=O)[C@H](Cc1c[nH]cn1)NC(=O)OCc1ccccc1)OCc1ccccc1` [Example 9, 1,6-Diphenyl-2(S),5(S)-di[N-[2(S)-N(benzyloxycarbonyl)amino-3-imidazol-4-yl-propanoyl]amino]-3,4-cis-epoxyhexane], the IC50 is 0.0842 µM.

Turning to `Cc1cccc(COC(=O)N[C@H](C(=O)N[C@@H](Cc2ccccc2)[C@@H]2O[C@@H]2[C@H](Cc2ccccc2)NC(=O)[C@@H](NC(=O)OCc2cccc(C)n2)C(C)C)C(C)C)n1` [Example 29, 1,6-Diphenyl-2(S),5(S)-di[N-[2(S)-N(6-methylpyrid-2-ylmethoxycarbonyl)amino-3-methylbutanoyl]amino]-3,4-cis-epoxyhexane], the IC50 is 0.0392 µM.

For `CC[C@H](NC(=O)N(C)Cc1ccccn1)C(=O)N[C@@H](Cc1ccccc1)[C@@H]1O[C@@H]1[C@H](Cc1ccccc1)NC(=O)[C@H](CC)NC(=O)N(C)Cc1ccccn1` [Example 28, 1,6-Diphenyl-2(S),5(S)-di[N-[2(S)-N[[N(methyl)-N(pyrid-2-ylmethyl)amino]carbonyl]aminobutanoyl]amino]-3,4-cis-epoxyhexane], the 50% inhibitory concentration (IC50) is 1.09 µM.

`N#CC[C@H](NC(=O)c1ccc2ccccc2n1)C(=O)N[C@@H](Cc1ccccc1)[C@@H]1O[C@@H]1[C@H](Cc1ccccc1)NC(=O)[C@H](CC#N)NC(=O)c1ccc2ccccc2n1` [Example 3, 1,6-Diphenyl-2(S),5(S)-di[N-[2(S)-N(quinolin-2-ylcarbonyl)amino-3-cyanopropanoyl]amino]-3,4-cis-epoxyhexane]: the IC50 is 5.35 µM.

As to `CN(Cc1ccc2ccccc2n1)C(=O)N[C@@H](CC#N)C(=O)N[C@@H](Cc1ccccc1)[C@@H]1O[C@@H]1[C@H](Cc1ccccc1)NC(=O)[C@H](CC#N)NC(=O)N(C)Cc1ccc2ccccc2n1` [Example 27, 1,6-Diphenyl-2(S),5(S)-di [N-[2(S)-N[[N(methyl)-N(quinolin-2-ylmethyl)amino]carbonyl]amino-3-cyanopropanoyl]amino]-3,4-cis-epoxyhexane], the IC50 is 0.0307 µM.

In the case of `NC(=O)CC[C@H](NC(=O)OCc1ccccc1)C(=O)N[C@@H](Cc1ccccc1)[C@@H]1O[C@@H]1[C@H](Cc1ccccc1)NC(=O)[C@H](CCC(N)=O)NC(=O)OCc1ccccc1` [Example 12, 1,6-Diphenyl-2(S),5(S)-di[N-[2(S)-N(benzyloxycarbonyl)amino-4-carbamoylbutanoyl]amino]-3,4-cis-epoxyhexane], the half-maximal inhibitory concentration (IC50) is 1.73 µM.

With `CC[C@H](C)[C@H](NC(=O)OCc1ccc2ccccc2n1)C(=O)N[C@@H](Cc1ccccc1)[C@@H]1O[C@@H]1[C@H](Cc1ccccc1)NC(=O)[C@@H](NC(=O)OCc1ccc2ccccc2n1)[C@@H](C)CC` [Example 15, 1,6-Diphenyl-2(S),5(S)-di[N-[2(S)-N[(quinolin-2-ylmethoxy)carbonyl]amino-3(S)-methylpentanoyl]amino]-3,4-cis-epoxyhexane], the 50% inhibitory concentration (IC50) was 0.0273 µM.

With `CC(C)(C)[C@H](NC(=O)OCc1ccc2ccccc2n1)C(=O)N[C@@H](Cc1ccccc1)[C@@H]1O[C@@H]1[C@H](Cc1ccccc1)NC(=O)[C@@H](NC(=O)OCc1ccc2ccccc2n1)C(C)(C)C` [Example 30], the half-maximal inhibitory concentration (IC50) is 0.382 µM.

`CC[C@H](NC(=O)N(C)Cc1ccccn1)C(=O)N[C@@H](CCCc1ccccc1)[C@@H]1O[C@@H]1[C@H](CCCc1ccccc1)NC(=O)[C@H](CC)NC(=O)N(C)Cc1ccccn1` [Example 37, 1,10-Diphenyl-4(S),7(S)-di[N-[2(S)-N-[[N(methyl)-N(pyrid-2-ylmethyl)amino]carbonyl]aminobutanoyl]amino]-5,6-cis-epoxydecane]: the half-inhibitory concentration (IC50) was 0.206 µM.

As to `CCC[C@H](NC(=O)N(C)Cc1ccc2ccccc2n1)C(=O)N[C@@H](Cc1ccccc1)[C@@H]1O[C@@H]1[C@H](Cc1ccccc1)NC(=O)[C@H](CCC)NC(=O)N(C)Cc1ccc2ccccc2n1` [Example 21, 1,6-Diphenyl-2(S),5(S)-di[N-[2(S)-N[[N(methyl)-N(quinolin-2-ylmethyl)amino]carbonyl]aminopentanoyl]amino]-3,4-cis epoxyhexane], the IC50 is 0.0661 µM.

Turning to `N#CC[C@H](NC(=O)OCc1ccccc1)C(=O)N[C@@H](Cc1ccccc1)[C@@H]1O[C@@H]1[C@H](Cc1ccccc1)NC(=O)[C@H](CC#N)NC(=O)OCc1ccccc1` [Example 6, 1,6-Diphenyl-2(S),5(S)-di[N-[2(S)-N(benzyloxycarbonyl)amino-3-cyanopropanoyl]amino]-3,4-cis-epoxyhexane], the IC50 was 0.88 µM.

Consider `CC[C@H](C)[C@H](NC(=O)NCc1ccccn1)C(=O)N[C@@H](Cc1ccccc1)[C@@H]1O[C@@H]1[C@H](Cc1ccccc1)NC(=O)[C@@H](NC(=O)NCc1ccccn1)[C@@H](C)CC` [Example 31], for which the IC50 is 0.0324 µM.

Staying with this experiment, now noted: read-out: Fluorescence Assay average IC50 (marked *) (converted).
For `CC(C)[C@H](NC(=O)OCc1ccccc1)C(=O)N[C@@H](Cc1ccccc1)[C@@H]1O[C@@H]1[C@H](Cc1ccccc1)NC(=O)[C@@H](NC(=O)OCc1ccccc1)C(C)C` [Example 1, 1,6-Diphenyl-2(S),5(S)-di[N-[2(S)-N(benzyloxycarbonyl)amino-3-methyl-butanoyl]amino]-3,4-cis-epoxyhexane], the IC50 was 0.212 µM.

Take `CC[C@H](NC(=O)N(C)Cc1ccc2ccccc2n1)C(=O)N[C@@H](Cc1ccc2ccccc2c1)[C@@H]1O[C@@H]1[C@H](Cc1ccc2ccccc2c1)NC(=O)[C@H](CC)NC(=O)N(C)Cc1ccc2ccccc2n1` [Example 32]: the 50% inhibitory concentration (IC50) is 0.181 µM.

Turning to `CC[C@H](C)[C@H](NC(=O)N(C)Cc1ccc2ccccc2n1)C(=O)N[C@@H](Cc1ccccc1)[C@@H]1O[C@@H]1[C@H](Cc1ccccc1)NC(=O)[C@@H](NC(=O)N(C)Cc1ccc2ccccc2n1)[C@@H](C)CC` [Example 19, 1,6-Diphenyl-2(S),5(S)-di[N-[2(S)-N[[N(methyl)-N(quinolin-2-ylmethyl)amino]carbonyl]amino-3(S)methylpentanoyl]amino]-3,4-cis-epoxyhexane], the 50% inhibitory concentration (IC50) was 0.166 µM.

On to `CC(C)[C@H](NC(=O)OCc1ccccn1)C(=O)N[C@@H](Cc1ccccc1)[C@@H]1O[C@@H]1[C@H](Cc1ccccc1)NC(=O)[C@@H](NC(=O)OCc1ccccn1)C(C)C` [Example 8, 1,6-Diphenyl-2(S),5(S)-di[N-[2(S)-N(pyrid-2-ylmethoxycarbonyl)amino-3-methylbutanoyl]amino]-3,4-cis-epoxyhexane], for which the half-maximal inhibitory concentration (IC50) was 0.349 µM.

The term IC50 denotes the concentration at which inhibition is half-maximal. In general, inhibition refers to the drop in the measured response relative to a control, in per cent.
